Data as given in PubChem BioAssay (NCI).
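Growth conditions: 96-well plates. Treatment: test compound, 48 hours, 5 concentrations. Analysis: linear interpolation between bracketing concentrations; unreached endpoints set to highest concentration. GI50 is the concentration that inhibits growth by half. TGI marks complete inhibition of growth.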

Assays:
Test in all cases: growth of human tumour cells (NCI), 48 h
KM12 colon = tested on: KM12 colon
HL-60(TB) leukemia = tested on: HL-60(TB) leukemia
HOP-92 NSCLC = tested on: HOP-92 NSCLC
IGROV1 ovarian = tested on: IGROV1 ovarian
CCRF-CEM leukemia = tested on: CCRF-CEM leukemia
HOP-62 NSCLC = tested on: HOP-62 NSCLC
LOX IMVI melanoma = tested on: LOX IMVI melanoma
A498 renal = tested on: A498 renal
OVCAR-5 ovarian = tested on: OVCAR-5 ovarian
A549 NSCLC = tested on: A549 NSCLC
UO-31 renal = tested on: UO-31 renal
SN12C renal = tested on: SN12C renal
SNB-75 CNS = tested on: SNB-75 CNS
HS 578T breast = tested on: HS 578T breast
OVCAR-4 ovarian = tested on: OVCAR-4 ovarian
SF-539 CNS = tested on: SF-539 CNS
ACHN renal = tested on: ACHN renal
SK-MEL-2 melanoma = tested on: SK-MEL-2 melanoma
NCI-H23 lung = tested on: NCI-H23 lung
UACC-257 melanoma = tested on: UACC-257 melanoma
COLO 205 colon = tested on: COLO 205 colon
U251 CNS = tested on: U251 CNS
HT29 colon = tested on: HT29 colon
RXF 393 renal = tested on: RXF 393 renal
NCI-H226 lung = tested on: NCI-H226 lung
SK-MEL-28 melanoma = tested on: SK-MEL-28 melanoma
NCI/ADR-RES ovarian = tested on: NCI/ADR-RES ovarian
SK-MEL-5 melanoma = tested on: SK-MEL-5 melanoma
SF-295 CNS = tested on: SF-295 CNS
DU-145 prostate = tested on: DU-145 prostate
NCI-H460 lung = tested on: NCI-H460 lung
T-47D breast = tested on: T-47D breast
MCF7 breast = tested on: MCF7 breast
SF-268 CNS = tested on: SF-268 CNS
OVCAR-3 ovarian = tested on: OVCAR-3 ovarian
CAKI-1 renal = tested on: CAKI-1 renal
PC-3 prostate = tested on: PC-3 prostate
SNB-19 CNS = tested on: SNB-19 CNS
EKVX NSCLC = tested on: EKVX NSCLC
BT-549 breast = tested on: BT-549 breast
786-0 renal = tested on: 786-0 renal
NCI-H522 lung = tested on: NCI-H522 lung
HCC-2998 colon = tested on: HCC-2998 colon
UACC-62 melanoma = tested on: UACC-62 melanoma
TK-10 renal = tested on: TK-10 renal
RPMI-8226 leukemia = tested on: RPMI-8226 leukemia
HCT-15 colon = tested on: HCT-15 colon
HCT-116 colon = tested on: HCT-116 colon
MOLT-4 leukemia = tested on: MOLT-4 leukemia
OVCAR-8 ovarian = tested on: OVCAR-8 ovarian
SK-OV-3 ovarian = tested on: SK-OV-3 ovarian
M14 melanoma = tested on: M14 melanoma
MALME-3M melanoma = tested on: MALME-3M melanoma
SR leukemia = tested on: SR leukemia
SW-620 colon = tested on: SW-620 colon
MDA-MB-231 breast = tested on: MDA-MB-231 breast
K-562 leukemia = tested on: K-562 leukemia
MDA-MB-435 = tested on: MDA-MB-435

For `CCO/C=N/C1=C(C#N)C(c2ccc(OC)cc2)c2sc3c(CC)cccc3c2O1` (stereo unspecified), the GI50 (KM12 colon) was 2.63 µM, the TGI (KM12 colon) was 21.7 µM and the GI50 (HL-60(TB) leukemia) was 1.92 µM. The TGI (HL-60(TB) leukemia) was 14.5 µM, the GI50 (HOP-92 NSCLC) was 1.67 µM and the TGI (HOP-92 NSCLC) was 16.7 µM. The GI50 (IGROV1 ovarian) was 1.53 µM, the TGI (IGROV1 ovarian) was 17.5 µM and the GI50 (CCRF-CEM leukemia) was 1.23 µM. For the same compound, the TGI (CCRF-CEM leukemia) was 20.8 µM, the GI50 (HOP-62 NSCLC) was 5.63 µM and the TGI (HOP-62 NSCLC) was 22.4 µM. For the same compound, the GI50 (LOX IMVI melanoma) was 2.31 µM, the TGI (LOX IMVI melanoma) was 14.5 µM and the GI50 (A498 renal) was 0.472 µM. The TGI (A498 renal) was 7.6 µM, the GI50 (OVCAR-5 ovarian) was 5.19 µM and the TGI (OVCAR-5 ovarian) was 18.4 µM. It also gave a GI50 (A549 NSCLC) of 2.59 µM, a TGI (A549 NSCLC) of 34.1 µM and a GI50 (UO-31 renal) of 3.29 µM. For the same compound, the TGI (UO-31 renal) was 16.1 µM, the GI50 (SN12C renal) was 3.73 µM and the TGI (SN12C renal) was 18.1 µM. The GI50 (SNB-75 CNS) was 0.366 µM, the TGI (SNB-75 CNS) was 4.02 µM and the GI50 (HS 578T breast) was 2.3 µM. For the same compound, the TGI (HS 578T breast) was 9.55 µM, the GI50 (OVCAR-4 ovarian) was 4.26 µM and the TGI (OVCAR-4 ovarian) was 16.3 µM. The GI50 (SF-539 CNS) was 1.75 µM, the TGI (SF-539 CNS) was 4.5 µM and the GI50 (ACHN renal) was 3.36 µM. For the same compound, the TGI (ACHN renal) was 17.2 µM, the GI50 (SK-MEL-2 melanoma) was 5.76 µM and the TGI (SK-MEL-2 melanoma) was 22.7 µM. It also gave a GI50 (NCI-H23 lung) of 3.09 µM, a TGI (NCI-H23 lung) of 16.4 µM and a GI50 (UACC-257 melanoma) of 13.1 µM. It also gave a TGI (UACC-257 melanoma) of 38.2 µM, a GI50 (COLO 205 colon) of 3.52 µM and a TGI (COLO 205 colon) of 12.9 µM. It also gave a GI50 (U251 CNS) of 3.77 µM, a TGI (U251 CNS) of 16.3 µM and a GI50 (HT29 colon) of 3.22 µM. For the same compound, the TGI (HT29 colon) was 11.6 µM, the GI50 (RXF 393 renal) was 1.72 µM and the TGI (RXF 393 renal) was 4.83 µM. The GI50 (NCI-H226 lung) was 6.65 µM, the TGI (NCI-H226 lung) was 25.4 µM and the GI50 (SK-MEL-28 melanoma) was 7.74 µM. It also gave a TGI (SK-MEL-28 melanoma) of 25 µM, a GI50 (NCI/ADR-RES ovarian) of 0.566 µM and a TGI (NCI/ADR-RES ovarian) of 13.9 µM. The GI50 (SK-MEL-5 melanoma) was 4.86 µM, the TGI (SK-MEL-5 melanoma) was 17 µM and the GI50 (SF-295 CNS) was 0.475 µM. For the same compound, the TGI (SF-295 CNS) was 1.96 µM, the GI50 (DU-145 prostate) was 3.55 µM and the TGI (DU-145 prostate) was 14.9 µM. For the same compound, the GI50 (NCI-H460 lung) was 3.46 µM, the TGI (NCI-H460 lung) was 12.8 µM and the GI50 (T-47D breast) was 3.13 µM. The TGI (T-47D breast) was 15.8 µM, the GI50 (MCF7 breast) was 1.25 µM and the TGI (MCF7 breast) was 13 µM. The GI50 (SF-268 CNS) was 7.49 µM, the TGI (SF-268 CNS) was 29.2 µM and the GI50 (OVCAR-3 ovarian) was 3.59 µM. It also gave a TGI (OVCAR-3 ovarian) of 18.1 µM, a GI50 (CAKI-1 renal) of 1.9 µM and a TGI (CAKI-1 renal) of 19.3 µM. It also gave a GI50 (PC-3 prostate) of 1.5 µM, a TGI (PC-3 prostate) of 12.6 µM and a GI50 (SNB-19 CNS) of 3.35 µM. The TGI (SNB-19 CNS) was 15.5 µM, the GI50 (EKVX NSCLC) was 3.47 µM and the TGI (EKVX NSCLC) was 17.3 µM. It also gave a GI50 (BT-549 breast) of 4.56 µM, a TGI (BT-549 breast) of 19.4 µM and a GI50 (786-0 renal) of 3.06 µM. The TGI (786-0 renal) was 17.5 µM, the GI50 (NCI-H522 lung) was 1.18 µM and the TGI (NCI-H522 lung) was 6.01 µM. The GI50 (HCC-2998 colon) was 2.01 µM, the TGI (HCC-2998 colon) was 5.98 µM and the GI50 (UACC-62 melanoma) was 1.04 µM. The TGI (UACC-62 melanoma) was 18.4 µM, the GI50 (TK-10 renal) was 9.77 µM and the TGI (TK-10 renal) was 24.2 µM. The GI50 (RPMI-8226 leukemia) was 2.74 µM, the TGI (RPMI-8226 leukemia) was 11.8 µM and the GI50 (HCT-15 colon) was 0.92 µM. It also gave a TGI (HCT-15 colon) of 10.4 µM, a GI50 (HCT-116 colon) of 1.03 µM and a TGI (HCT-116 colon) of 11.7 µM. For the same compound, the GI50 (MOLT-4 leukemia) was 3.28 µM, the TGI (MOLT-4 leukemia) was 26.2 µM and the GI50 (OVCAR-8 ovarian) was 3.24 µM. The TGI (OVCAR-8 ovarian) was 18 µM, the GI50 (SK-OV-3 ovarian) was 5.3 µM and the TGI (SK-OV-3 ovarian) was 20.9 µM. It also gave a GI50 (M14 melanoma) of 1.5 µM, a TGI (M14 melanoma) of 11.8 µM and a GI50 (MALME-3M melanoma) of 10.9 µM. For the same compound, the TGI (MALME-3M melanoma) was 25 µM, the GI50 (SR leukemia) was 0.821 µM and the TGI (SR leukemia) was 25 µM. For the same compound, the GI50 (SW-620 colon) was 1.45 µM, the TGI (SW-620 colon) was 16.4 µM and the GI50 (MDA-MB-231 breast) was 4.05 µM. It also gave a TGI (MDA-MB-231 breast) of 24.1 µM, a GI50 (K-562 leukemia) of 0.678 µM and a TGI (K-562 leukemia) of 30.8 µM. For the same compound, the GI50 (MDA-MB-435) was 0.373 µM and the TGI (MDA-MB-435) was 1.51 µM.
